22 molecules from patent publication US10087169B2, “Bicyclic PKM2 activators” (Agios Pharmaceuticals, Inc., priority 2010, dated 2018) can be followed below.

Sequence of PKM2 (P14618 whole entry): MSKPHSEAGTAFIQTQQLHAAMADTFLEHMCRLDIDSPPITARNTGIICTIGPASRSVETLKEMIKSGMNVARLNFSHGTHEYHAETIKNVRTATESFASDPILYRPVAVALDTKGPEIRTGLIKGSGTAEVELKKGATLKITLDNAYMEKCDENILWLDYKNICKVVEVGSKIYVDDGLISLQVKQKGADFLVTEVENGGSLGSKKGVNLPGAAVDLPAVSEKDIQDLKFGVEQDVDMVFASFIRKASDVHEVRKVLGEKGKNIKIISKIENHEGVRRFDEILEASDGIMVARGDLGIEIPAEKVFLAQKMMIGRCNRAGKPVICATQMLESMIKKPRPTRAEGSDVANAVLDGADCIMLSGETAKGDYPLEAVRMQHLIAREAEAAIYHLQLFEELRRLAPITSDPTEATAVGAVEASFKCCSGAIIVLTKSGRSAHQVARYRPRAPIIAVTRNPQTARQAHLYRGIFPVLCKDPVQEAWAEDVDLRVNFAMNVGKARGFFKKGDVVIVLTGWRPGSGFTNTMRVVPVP

The target of this assay is PKM2 (Homo sapiens, UniProt P14618). In words: PKM2 Assay. Type of assay: biochemical. The conditions noted are these: activation of PKM2; Tables 1-4. How it is done:
• PKM2 stock enzyme solution was diluted in Reaction Buffer • 2 μL of compound was added into each well first, and then 180 μL of the Reaction Mix was added. • Reaction mixture with compound (without ADP) was incubated for 30 minutes at 4° C. • Plates were re-equilibrated to room temperature prior to adding 20 μL ADP to initiate the reaction. • Reaction progress was measured as changes in absorbance at 340 nm wavelength at room temperature (25° C.) Reaction Mix:
PKM2 (50 ng/well), ADP (0.7 mM), PEP (0.15 mM), NADH (180 μM), LDH (2 units) in Reaction Buffer
Molecule `CN1C(=O)OCc2cc(S(=O)(=O)Nc3ccc(F)c(Cl)c3)ccc21` had an AC50 of 100 to 500 nM.

In turn, `CN1C(=O)OCc2ccc(S(=O)(=O)Nc3ccc(F)c(Cl)c3)cc21` displayed an AC50 of less than 100 nM.

Regarding `CN1Cc2cc(S(=O)(=O)Nc3ccc(F)c(Cl)c3)ccc2OC1=O`, the AC50 is 100 to 500 nM.

In turn, `Cc1cc(NS(=O)(=O)c2ccc3c(c2)N(C)CC(=O)O3)ccc1F` had a concentration at half-maximal activity (AC50) of less than 100 nM.

Molecule `Cc1cc(NS(=O)(=O)c2ccc3c(c2)CN(C)C(=O)O3)ccc1F` displayed an AC50 of 100 to 500 nM.

Molecule `O=C1COc2ccc(S(=O)(=O)Nc3ccc4c(c3)OCCO4)cc2N1` came in with an AC50 of more than 500 nM.

Turning to `Cc1cc(NS(=O)(=O)c2ccc3c(c2)COC(=O)N3C)ccc1F`, the AC50 lay in the range of 100 to 500 nM.

Molecule `CN1CC(=O)Oc2ccc(S(=O)(=O)Nc3ccc(F)c(Cl)c3)cc21` displayed an AC50 of less than 100 nM.

Consider `CN1C(=O)COc2ccc(S(=O)(=O)Nc3ccc(F)cc3)cc21`, for which the AC50 is more than 500 nM.

As for `CN1C(=O)COc2ccc(S(=O)(=O)Nc3ccc4c(c3)OCCO4)cc21`, the AC50 is more than 500 nM.

Molecule `O=C1Oc2ccc(S(=O)(=O)Nc3ccc(F)c(Cl)c3)cc2CN1Cc1ccccc1` showed an AC50 of more than 500 nM.

As for `CN1C(=O)COc2ccc(S(=O)(=O)Nc3ccc(F)c(Cl)c3)cc21`, the AC50 is less than 100 nM.

As to `CN1C(=O)COc2ccc(S(=O)(=O)Nc3cccc(Cl)c3)cc21`, the AC50 is less than 100 nM.

Turning to `COc1ccc(NS(=O)(=O)c2ccc3c(c2)N(C)C(=O)CO3)cc1`, the AC50 was more than 500 nM.

`Cc1cc(C)cc(NS(=O)(=O)c2ccc3c(c2)NC(=O)CO3)c1`: the AC50 is more than 500 nM.

`Cc1cc(C)cc(NS(=O)(=O)c2ccc3c(c2)N(C)C(=O)CO3)c1` yielded an AC50 of less than 100 nM.

In turn, `Cc1cc(NS(=O)(=O)c2ccc3c(c2)N(C)C(=O)OC3)ccc1F` came in with an AC50 of less than 100 nM.

Consider `CN1CC(=O)Oc2ccc(S(=O)(=O)Nc3cccc(Cl)c3)cc21`, for which the AC50 was less than 100 nM.

`COc1ccc(NS(=O)(=O)c2ccc3c(c2)NC(=O)CO3)cc1`: the AC50 is more than 500 nM.

As to `Cc1cc(NS(=O)(=O)c2ccc3c(c2)N(C)C(=O)CO3)ccc1F`, the AC50 was less than 100 nM.

With `CN1C(=O)COc2ccc(S(=O)(=O)Nc3ccc4c(c3)OCO4)cc21`, the half-maximal activity concentration (AC50) was less than 100 nM.

Molecule `O=C1COc2ccc(S(=O)(=O)Nc3ccc(F)cc3)cc2N1` yielded an AC50 of more than 500 nM.

By AC50 is commonly meant the concentration giving half of the maximal activity seen. Read a high AC50 as weaker potency.
